Broadly, the IC50 is the point on the concentration scale where inhibition reaches its midpoint. Low values mean higher potency, high ones lower potency. By Ki is commonly meant the dissociation constant of the complex between target and ligand, obtained from inhibition or displacement.

A value given as a limit tells only on which side of the number the result lay.

From patent US10301261B2, “Substituted indoles as modulators of ROR-gamma” (Vitae Pharmaceuticals, LLC, priority 2015, dated 2019) come the findings set out here.

Experiment [1] deals with full-length RORγt in Jurkat cells (Homo sapiens (Human), UniProt P51449). The experiment can be described thus: RORγt 5×RORE Assay in Jurkat Cells (Assay 2). It is filed as cell-based. The settings on record: RORγt 5×RORE Nanoluc reporter. Here is the method:
[formula] RORγt 5×RORE Assay in Jurkat Cells (Assay 2)
Compounds described herein were tested for RORγ inverse agonist activity in a cell-based, transcriptional activity assay. […] (Promega, Cat. # N1021) using KpnI and HindIII restriction sites. […] Tested compounds were added to the cells in the same media (final concentration of DMSO was 0.1% (v/v)), and the plates were incubated at 37° C./5% CO2 for 16-18 hrs. Luciferase activity in the conditioned supernatants was determined with NanoGlo® assay reagents (Promega, Cat.# N1130).

Experiment [2] concerns the target recombinant RORγ Ligand Binding Domain (LBD) protein (Homo sapiens (Human), UniProt P51449). The experiment is described as follows: Radio-Ligand RORγ Binding Assay (Assay 1). Conditions: radio-ligand 25-hydroxy [26,27-3H]-cholesterol competition. Here is the method: Radio-Ligand RORγ Binding Assay (Assay 1)
Compounds described herein were tested for ability to bind to RORγ in a cell-free competition assay with commercially available radio-ligand (RL), 25-hydroxy [26,27-^3H]-cholesterol (PerkinElmer, Cat. # NET674250UC), for a ligand binding site on a recombinant RORγ Ligand Binding Domain (LBD) protein expressed as a 6×His-Glutathione-S-Transferase (GST) fusion. […] The plate was shaken at 700 rpm for 20 min and incubated for 10 min at rt, after which 40 μL of poly-Lys YSi SPA beads (PerkinElmer, Cat. # RPNQ0010) were added to achieve 50 μg of the beads per well. The plate was incubated on an orbital shaker for 20 min and then for 10 min without agitation at rt. SPA signal for tritium beta radiation was registered on PerkinElmer Microbeta plate reader. […] The percent inhibition vs. concentration data were fit into a four-parameter model, and IC50 values were calculated from the fit as the concentrations corresponding to the inflection points on the dose-response curves. […]

recombinant RORγ Ligand Binding Domain (LBD) protein, sequence (P51449 269-508): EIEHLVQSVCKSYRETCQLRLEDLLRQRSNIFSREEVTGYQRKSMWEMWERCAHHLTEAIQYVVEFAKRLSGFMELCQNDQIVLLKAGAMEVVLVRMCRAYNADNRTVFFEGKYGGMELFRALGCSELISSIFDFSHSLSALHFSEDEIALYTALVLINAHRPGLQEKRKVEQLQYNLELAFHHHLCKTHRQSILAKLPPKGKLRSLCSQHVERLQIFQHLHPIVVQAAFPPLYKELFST
full-length RORγt in Jurkat cells, sequence (P51449 other isoform, or with tags, fused parts or gaps): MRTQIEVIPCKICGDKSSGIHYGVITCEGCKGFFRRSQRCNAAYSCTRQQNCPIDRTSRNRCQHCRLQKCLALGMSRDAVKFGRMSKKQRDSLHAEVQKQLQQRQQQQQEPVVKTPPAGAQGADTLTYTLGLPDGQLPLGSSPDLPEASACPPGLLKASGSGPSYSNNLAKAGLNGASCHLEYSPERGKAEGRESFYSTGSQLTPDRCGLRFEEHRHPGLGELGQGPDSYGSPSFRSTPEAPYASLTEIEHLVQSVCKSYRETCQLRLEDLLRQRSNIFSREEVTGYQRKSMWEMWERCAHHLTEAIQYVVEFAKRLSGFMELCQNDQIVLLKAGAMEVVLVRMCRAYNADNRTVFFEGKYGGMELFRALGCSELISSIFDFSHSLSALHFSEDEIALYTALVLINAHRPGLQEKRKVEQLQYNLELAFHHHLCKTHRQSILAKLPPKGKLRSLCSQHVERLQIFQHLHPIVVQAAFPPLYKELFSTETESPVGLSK

Molecule “1-ethyl-N-(4-(ethylsulfonyl)benzyl)-2-(((1s,4s)-4-(trifluoromethyl)cyclohexyl)methyl)-1H-indole-5-carboxamide [IN-17.2]” had an IC50 in experiment [1] above 1000 nM. Besides, the Ki in experiment [2] was below 100 nM.

The molecule “1-ethyl-N-((5-(ethylsulfonyl)pyridin-2-yl)methyl)-2-(((1s,4s)-4-(trifluoromethyl)cyclohexyl)methyl)-1H-indole-5-carboxamide [IN-15.2]” had a half-inhibitory concentration (IC50) in experiment [1] above 1000 nM. For the same molecule, the Ki in experiment [2] is below 100 nM.

Consider “1-ethyl-N-((R)-1-(4-(ethylsulfonyl)phenyl)-2-hydroxyethyl)-2-(((1s,4S)-4-(trifluoromethyl)cyclohexyl)methyl)-1H-indole-5-carboxamide [IN-16.2]”, for which, in experiment [1], the IC50 was above 1000 nM. Also, the Ki in experiment [2] was below 100 nM.

Consider `CCS(=O)(=O)c1ccc(C(C)NC(=O)c2ccc3c(c2)nc(Cc2ccc(C(F)(F)F)cc2)n3CC(C)C)cc1` (single isomer, unassigned) [BE-45], for which, in experiment [2], the Ki is […].

As to `CCn1c(CC2CCC(C(F)(F)F)OC2)nc2cc(C(=O)NCc3ccc(S(=O)(=O)CC)cc3)ccc21` (single isomer, unassigned) [BE-56.1, 1-ethyl-N-(4-(ethylsulfonyl)benzyl)-2-((6-(trifluoromethyl)tetrahydro-2H-pyran-3-yl)methyl)-1H-benzo[d]imidazole-5-carboxamide], the Ki in experiment [2] was 100 to 1000 nM.

Turning to `CCn1c(CC2CCC(C(F)(F)F)OC2)nc2cc(C(=O)NCc3ccc(S(=O)(=O)CC)cc3)ccc21` (single isomer, unassigned) [BE-56.2, 1-ethyl-N-(4-(ethylsulfonyl)benzyl)-2-((6-(trifluoromethyl)tetrahydro-2H-pyran-3-yl)methyl)-1H-benzo[d]imidazole-5-carboxamide], the Ki in experiment [2] fell in the range of 100 to 1000 nM.

For `CCn1c(CC2CCC(C(F)(F)F)OC2)nc2cc(C(=O)NCc3ccc(S(=O)(=O)CC)cc3)ccc21` (single isomer, unassigned) [BE-56.3, 1-ethyl-N-(4-(ethylsulfonyl)benzyl)-2-((6-(trifluoromethyl)tetrahydro-2H-pyran-3-yl)methyl)-1H-benzo[d]imidazole-5-carboxamide], the Ki in experiment [2] was 100 to 1000 nM.

In experiment [1], `CCS(=O)(=O)c1ccc([C@H](CO)NC(=O)c2ccc3c(c2)nc(COC2CCC(C(F)(F)F)CC2)n3C2CC2)cc1` (single isomer, unassigned) [BE-71.1] displayed an IC50 below 100 nM. For the same molecule, in experiment [2], the Ki is below 100 nM.

Molecule `CCS(=O)(=O)c1ccc([C@H](CO)NC(=O)c2ccc3c(c2)nc(CO[C@H]2CC[C@H](C(F)(F)F)CC2)n3C2CC2)cc1` (single isomer, unassigned) [BE-71.2] yielded an IC50 in experiment [1] below 100 nM. Also, the Ki in experiment [2] was below 100 nM.

As to `CCS(=O)(=O)c1ccc(CNC(=O)c2cnc3c(c2)nc(C[C@H]2CC[C@H](C(F)(F)F)CC2)n3C2CC2)cc1` [AB-1.1, 3-cyclopropyl-N-(4-(ethylsulfonyl)benzyl)-2-(((1r,4r)-4-(trifluoromethyl)cyclohexyl)methyl)-3H-imidazo[4,5-b]pyridine-6-carboxamide], the IC50 in experiment [1] is below 100 nM. In addition, in experiment [2], the Ki was below 100 nM.

Regarding `CCS(=O)(=O)c1ccc(CNC(=O)c2cnc3c(c2)nc(C[C@H]2CC[C@@H](C(F)(F)F)CC2)n3C2CC2)cc1` [AB-1.2, 3-cyclopropyl-N-(4-(ethylsulfonyl)benzyl)-2-(((1s,4s)-4-(trifluoromethyl)cyclohexyl)methyl)-3H-imidazo[4,5-b]pyridine-6-carboxamide], the 50% inhibitory concentration (IC50) in experiment [1] was above 1000 nM. Further, the Ki in experiment [2] is below 100 nM.

Turning to `CS(=O)(=O)c1ccc(CNC(=O)c2cnc3c(c2)nc(Cc2ccc(C(F)(F)F)cc2)n3C2CC2)cc1` [AB-2, 3-cyclopropyl-N-(4-(methylsulfonyl)benzyl)-2-(4-(trifluoromethyl)benzyl)-3H-imidazo[4,5-b]pyridine-6-carboxamide], in experiment [2], the Ki was 100 to 1000 nM.

With `CCS(=O)(=O)c1ccc(CNC(=O)c2cnc3c(c2)nc(Cc2ccc(C(F)(F)F)cc2)n3C2CC2)cc1` [AB-3, 3-cyclopropyl-N-(4-(ethylsulfonyl)benzyl)-2-(4-(trifluoromethyl)benzyl)-3H-imidazo[4,5-b]pyridine-6-carboxamide], the IC50 in experiment [1] was below 100 nM. The inhibitory constant (Ki) in experiment [2] was below 100 nM.

For `CCS(=O)(=O)c1ccc(CNC(=O)c2cnc3c(c2)cc(C[C@H]2CC[C@H](C(F)(F)F)CC2)n3C2CC2)cc1` [AI-1, 1-cyclopropyl-N-(4-(ethylsulfonyl)benzyl)-2-(((1r,4r)-4-(trifluoromethyl)cyclohexyl)methyl)-1H-pyrrolo[2,3-b]pyridine-5-carboxamide], in experiment [1], the IC50 is below 100 nM. Also, the Ki in experiment [2] was below 100 nM.

As for `C=C(C)Cn1c(Cc2ccc(C(F)(F)F)cc2)cc2cc(C(=O)NCc3ccc(S(=O)(=O)CC)cc3)cnc21` [AI-3, N-(4-(ethylsulfonyl)benzyl)-1-(2-methylallyl)-2-(4-(trifluoromethyl)benzyl)-1H-pyrrolo[2,3-b]pyridine-5-carboxamide], the Ki in experiment [2] was below 100 nM.

For the molecule `CCS(=O)(=O)c1ccc([C@H](CO)NC(=O)c2ccc3c(c2)nc(O[C@H]2CC[C@H](C(F)(F)F)CC2)n3C2CC2)cc1` [BE-1, 1-cyclopropyl-N-((R)-1-(4-(ethylsulfonyl)phenyl)-2-hydroxyethyl)-2-(((1r,4R)-4-(trifluoromethyl)cyclohexyl)oxy)-1H-benzo[d]imidazole-5-carboxamide], the IC50 in experiment [1] was below 100 nM. Further, the Ki in experiment [2] is below 100 nM.

For `CCn1c(Oc2ccc(C(F)(F)F)cc2)nc2cc(C(=O)N[C@@H](CN(C)C)c3ccc(S(=O)(=O)CC)cc3)ccc21` [BE-10, (R)-N-(2-(dimethylamino)-1-(4-(ethylsulfonyl)phenyl)ethyl)-1-ethyl-2-(4-(trifluoromethyl)phenoxy)-1H-benzo[d]imidazole-5-carboxamide], the Ki in experiment [2] lay in the range of 100 to 1000 nM.

As to `CCS(=O)(=O)c1ccc([C@@H](CO)NC(=O)c2ccc3c(c2)nc(C[C@H]2CC[C@H](C(F)(F)F)CC2)n3C2CC2)nc1` [BE-29, 1-cyclopropyl-N-((S)-1-(5-(ethylsulfonyl)pyridin-2-yl)-2-hydroxyethyl)-2-(((1r,4S)-4-(trifluoromethyl)cyclohexyl)methyl)-1H-benzo[d]imidazole-5-carboxamide], in experiment [2], the Ki is above 1000 nM.

With `CCS(=O)(=O)c1ccc(CNC(=O)c2ccc3c(c2)nc(Cc2ccc(C(F)(F)F)cc2)n3C2CCC2)cc1` [BE-38, 1-cyclobutyl-N-(4-(ethylsulfonyl)benzyl)-2-(4-(trifluoromethyl)benzyl)-1H-benzo[d]imidazole-5-carboxamide], in experiment [2], the Ki was below 100 nM.

`CCS(=O)(=O)c1ccc(CNC(=O)c2ccc3c(c2)nc(Cc2ccc(C(F)(F)F)cc2)n3CC(C)C)nc1` [BE-43, N-((5-(ethylsulfonyl)pyridin-2-yl)methyl)-1-isobutyl-2-(4-(trifluoromethyl)benzyl)-1H-benzo[d]imidazole-5-carboxamide]: the Ki in experiment [2] was below 100 nM.

`CCS(=O)(=O)c1ccc(CNC(=O)c2cc(Br)c3c(c2)nc(C[C@H]2CC[C@H](C(F)(F)F)CC2)n3C)cc1` [BE-58, 7-bromo-N-(4-(ethylsulfonyl)benzyl)-1-methyl-2-(((1r,4r)-4-(trifluoromethyl)cyclohexyl)methyl)-1H-benzo[d]imidazole-5-carboxamide]: the Ki in experiment [2] is 100 to 1000 nM.

As for `CCS(=O)(=O)c1ccc(CNC(=O)c2cc(Br)c3c(c2)nc(Cc2ccc(C(F)(F)F)cc2)n3C)cc1` [BE-59, 7-bromo-N-(4-(ethylsulfonyl)benzyl)-1-methyl-2-(4-(trifluoromethyl)benzyl)-1H-benzo[d]imidazole-5-carboxamide], the Ki in experiment [2] fell in the range of 100 to 1000 nM.

On to `CCS(=O)(=O)c1ccc(CNC(=O)c2ccc3c(c2)nc(C(=O)C2CCC(C(F)(F)F)CC2)n3C2CC2)cc1` (stereo not drawn) [BE-64, 1-cyclopropyl-N-(4-(ethylsulfonyl)benzyl)-2-(4-(trifluoromethyl)cyclohexane-1-carbonyl)-1H-benzo[d]imidazole-5-carboxamide], for which, in experiment [2], the Ki was below 100 nM.

Regarding `CCS(=O)(=O)c1ccc(CC(=O)Nc2ccc3c(c2)nc(Cc2ccc(C(F)(F)F)cc2)n3CC(C)C)cc1` [BE-68, 2-(4-(ethylsulfonyl)phenyl)-N-(1-isobutyl-2-(4-(trifluoromethyl)benzyl)-1H-benzo[d]imidazol-5-yl)acetamide], the Ki in experiment [2] is below 100 nM.

As to `CCn1c(Cc2ccc(OC(F)F)cc2)cc2cc(C(=O)N[C@@H](CO)c3ccc(S(=O)(=O)CC)cn3)ccc21` [IN-6, (R)-2-(4-(difluoromethoxy)benzyl)-1-ethyl-N-(1-(5-(ethylsulfonyl)pyridin-2-yl)-2-hydroxyethyl)-1H-indole-5-carboxamide], the Ki in experiment [2] was below 100 nM.

Take `CCn1c(Cc2cccc(OC(F)F)c2)cc2cc(C(=O)N[C@@H](CO)c3ccc(S(=O)(=O)CC)cn3)ccc21` [IN-7, (R)-2-(3-(difluoromethoxy)benzyl)-1-ethyl-N-(1-(5-(ethylsulfonyl)pyridin-2-yl)-2-hydroxyethyl)-1H-indole-5-carboxamide]: the inhibition constant Ki in experiment [2] is below 100 nM.
